Measured values as given in patent publication US20250333709A1, “BRAIN ENDOTHELIAL CELLS AND METHODS OF MAKING” (President and Fellows of Harvard College, priority 2022, published 2025).
Where two headings read alike, the source gives them in different places.

B1: WNT3A: Wnt ligand used at 100 ng/ml to activate Wnt signaling in iPSC-ECs (protein, UniProt P56704 19-352, looked up)
Protein Wnt-3a: SYPIWWSLAVGPQYSSLGSQPILCASIPGLVPKQLRFCRNYVEIMPSVAEGIKIGIQECQHQFRGRRWNCTTVHDSLAIFGPVLDKATRESAFVHAIASAGVAFAVTRSCAEGTAAICGCSSRHQGSPGKGWKWGGCSEDIEFGGMVSREFADARENRPDARSAMNRHNNEAGRQAIASHMHLKCKCHGLSGSCEVKTCWWSQPDFRAIGDFLKDKYDSASEMVVEKHRESRGWVETLRPRYTYFKVPTERDLVYYEASPNFCEPNPETGSFGTRDRTCNVSSHGIDGCDLLCCGRGHNARAERRREKCRCVFHWCCYVSCQECTRVYDVHTCK
B2: ciliary neurotrophic factor (protein, UniProt P26441 1-200, looked up)
Ciliary neurotrophic factor: MAFTEHSPLTPHRRDLCSRSIWLARKIRSDLTALTESYVKHQGLNKNINLDSADGMPVASTDQWSELTEAERLQENLQAYRTFHVLLARLLEDQQVHFTPTEGDFHQAIHTLLLQVAAFAYQIEELMILLEYKIPRNEADGMPINVGDGGLFEKKLWGLKVLQELSQWTVRSIHDLRFISSHQTGIPARGSHYIANNKKM
notes: Human recombinant ciliary neurotrophic factor, 20 ng/ml

What was measured:
[1] = test system: iPSC-ECs; test: GLUT1 and PLVAP expression in iPSC-ECs after Wnt signaling activation (immunostaining, mRNA); format: cell-based, human; settings: vs. EGM2, FIG. 2A-2C
Excerpt: CTNNB1::GFP iPSC line (Allen Cell, AICS-0058-067iPSC) was used to visualize subcellular localization of beta-catenin protein. *, P<0.05 vs. EGM2; **, P<0.01 vs. EGM2. Scale bars, 100 um.

[2] = test system: iPSC-ECs; test: mRNA levels of brain EC genes in iPSC-ECs with HDAC inhibitor, Wnt pathway activator and PKC activator; format: cell-based, human; settings: 48 hours, presence and absence of quisinostat 10 nM, Chir99021 5 uM, WNT3A 100 ng/ml, IndoV 100 nM, PMA 100 nM, FIG. 5C
Procedure: FIGS. 5A-5C show overexpression of brain EC-specific transcription factors and inhibition of HDAC induce a subset of brain EC-enriched genes. […] Chir99021, 5 uM; WNT3A, 100 ng/ml; IndoV, 100 nM; PMA, 100 nM, Q, quisinostate 10 nM; 48 hours. *, P<0.05 vs. Control; **, P<0.01 vs. Control.

[3] = test system: iPSC-ECs; test: Brain EC gene regulation in iPSC-ECs exposed to a combination of WNT3A, CNTF and RepSox; format: cell-based, human; settings: FIG. 4D
[4] = test system: iPSC-ECs; settings: 10 uM for 2 days, FIG. 4A, 4C
Procedure: Representative immunostaining images of iPSC-ECs after treatment with TGFBR1 inhibitor RepSox (10 uM, FIG. 4A) and human recombinant TGF beta (FIG. 4B). […] All compounds were treated at 10 uM concentrations for 2 days. […] Scale bars, 100 um.

[5] = test system: iPSC-ECs; test: CLDN5 expression in CNTF-treated iPSC-ECs (immunostaining); format: cell-based, human; settings: CNTF 20 ng/ml, CNTFRa 100 ng/ml, FIG. 3
Procedure: FIG. 3A illustrates iPSC-ECs exposed to either fresh astrocyte medium (AM) or astrocyte-conditioned medium (ACM). Conditioned medium was collected for 48 hours. Both AM and ACM were treated as 1:1 mixture with EC medium (EGM2). […] Human recombinant ciliary neurotrophic factor (CNTF), 20 ng/ml; human recombinant CNTF receptor alpha (CNTFRa), 100 ng/ml. […] PM and PCM were treated as 1:1 mixture with EGM2 for 2 days. […] Scale bars, 100 um.

Molecule	GLUT1 expression [1]	PLVAP expression [1]	expression of ABCB1 (mRNA) [2]	expression of MFSD2A (mRNA) [2]	effect on brain EC gene regulation [3]	CLDN5 expression [4]	CLDN5 expression [5]
Cc1c[nH]c(-c2cnc(NCCNc3ccc(C#N)cn3)nc2-c2ccc(Cl)cc2Cl)n1 [Chir99021]	upregulates	downregulates	induce	induce	–	–	–
CC(C)[C@H]1C(=O)N[C@H](CO)Cc2c[nH]c3cccc(c23)N1C [IndoV]	–	–	induce	induce	–	–	–
CCCCCCCCCCCCCC(=O)O[C@@H]1[C@@H](C)[C@@]2(O)[C@@H](C=C(CO)C[C@]3(O)C(=O)C(C)=C[C@@H]23)[C@@H]2C(C)(C)[C@]12OC(C)=O [PMA]	–	–	induce	induce	–	–	–
Cc1cccc(-c2[nH]ncc2-c2ccc3ncccc3n2)n1 [RepSox]	–	–	–	–	additive effect	increase	–
B1	upregulates	downregulates	induce	induce	additive effect	–	–
B2	–	–	–	–	additive effect	–	increases
